Data published in US12478603B2, “Serum metabolites as biomarkers for carnitine treatment of sepsis” (priority 2020, dated 2025).
Entries after “also recorded” stand apart in the source; their conditions may differ. Where two headings read alike, the source gives them in different places.

Key:
[1] = test system: patients with septic shock; assay: Pharmacometabolomic analysis of the RACE trial: mortality after L-carnitine stratified by pre-treatment serum acetylcarnitine; type: in vivo, human; conditions: for 90-day mortality: high (≥36 μM) pretreatment acetylcarnitine, placebo 100%; for hazard ratio (Mantel-Haenszel) / Kaplan-Meier curve, mortality benefit: 18 g vs placebo
From the text: Patient selection: Detailed inclusion and exclusion criteria have been previously reported (see, e.g., Jones (2018) “Effect of Levocarnitine vs Placebo as an Adjunctive Treatment for Septic Shock: The Rapid Administration of Carnitine in Sepsis (RACE) Randomized Clinical Trial” JAMA Netw Open 1: e186076, incorporated herein by reference). Briefly, patients presenting with suspected or confirmed infection and meeting consensus criteria for septic shock including administration of continuous vasopressors despite adequate fluid resuscitation, an elevated lactate>2 mmol/L, and a SOFA score of at least 5 were eligible for inclusion. All patients enrolled in the clinical trial were included in the present analysis with the exception of two patients who withdrew consent following randomization and 12 that lacked a T0 sample (FIG. 6).
Blood sampling. Following consent but prior to initiation of therapy, whole blood was drawn into serum separator tubes (SST; Vacutainer, Becton Dickinson, Franklin Lakes, NJ) and was allowed to clot for at least 30 minutes at room temperature. A portion of whole blood was aliquoted, while the remainder was centrifuged to yield serum. All samples were then frozen at −80° C. within 60 minutes of the initial sample acquisition. This approach has been previously utilized to yield samples appropriate for metabolomics analyses (see, e.g., Puskarich (2015) “Pharmacometabolomics of L-carnitine treatment response phenotypes in patients with septic shock” Ann Am Thorac Soc 12: 46-56, incorporated herein by reference). At the completion of the clinical trial, serum samples were shipped on dry ice to the University of Michigan for assay.
Measurement of Acylcarnitines: Analysis was performed consistent with prior methods (see, e.g., Puskarich (2018) “Septic Shock Nonsurvivors Have Persistently Elevated Acylcarnitines Following Carnitine Supplementation” Shock 49: 412-419, incorporated herein by reference). Briefly, at the time of analysis, serum samples were thawed on ice and extraction solvent was prepared consisting of a 1:1:1 mixture of methanol:acetonitrile:acetone plus a 1:200 dilution of a stock mixture of stable-isotope labeled acylcarnitine standards dissolved according to manufacturer instructions (NSK-B, Cambridge Isotope Laboratories). Acylcarnitine species were then analyzed without derivatization by RPLC-MS/MS using an Agilent 1200 LC coupled to an Agilent 6410 tandem quadrupole (Santa Clara, CA). A pooled sample generated by combining a small volume of all study samples was injected every 10th run and was used for intra-batch and inter-batch drift correction as described below. Absolute quantitation by isotope dilution mass spectrometry was performed for acylcarnitine species with exact-matching stable isotope internal standards (L-carnitine, C2, C3, C4, C5, C8, C14, C16) by multiplying the ratio of the unlabeled peak area/labeled peak area by the known concentration of acylcarnitine in the extraction solvent, then adjusting for dilution of the original serum sample. Other acylcarnitine species were limited to relative quantification by peak area.
By 90 days, 90% of the deaths occurred and the interaction term between L-carnitine treatment and mortality flattened (FIG. 7). Based on this analysis, 90-day mortality was chosen as the primary clinical outcome.
Statistical analysis: For logistic regression modeling, treatment assignment was scaled from 0 (placebo) to 1 (18 g L-carnitine) and age and SOFA score were z-scale normalized. Two main models were developed for each metabolite. The base model was described by log it(p)=B0+BD*Dose+BM*Metabolitei, where p is the probability of mortality in 90 days. The treatment interaction was modeled with: log it(p)=B0+(BD*Dose)+(BM*Metabolitei)+(BMD*Metabolitei)*Dose […]

[2] = test system: patients with septic shock; conditions: cited from earlier work; for absolute mortality reduction at 28 days compared to saline placebo: 18 g dose, non-significant

## C[N+](C)(C)C[C@H](O)CC(=O)[O-] [L-carnitine]
[1]; as baseline acetylcarnitine concentration increases, dose 0, 6, 12, 18 g
  predicted probability of 90-day mortality (interaction logistic regression model): declines with increasing L-carnitine dose
[1]; L-carnitine 18 g, p=0.002
  90-day mortality: 50%
[1]; L-carnitine any dose, p=0.02
  90-day mortality: 69%
[1]; low baseline acetylcarnitine tertile (normalized [−2.21, −0.508], n=79), placebo, 6, 12, 18 g, Fisher's exact test p=0.81
  proportion of 90-day non-survivors by dose received: not associated with dose received; also recorded: not different between placebo or L-carnitine doses
[1]; patients with acetylcarnitine less than 36 μM
  treatment benefit (90-day mortality): no treatment benefit
[1]; patients with acetylcarnitine ≥26 μM, L-carnitine 18 g, additional analysis (trend)
  treatment / mortality benefit: received a treatment benefit; also recorded: derived a mortality benefit
[1]; scenario 1: no acetylcarnitine threshold
  hazard ratio (Mantel-Haenszel): not significant
[1]; scenario 1: no acetylcarnitine threshold, n=170, p=0.28
  Kaplan-Meier curve, mortality benefit: no mortality benefit
[1]; scenario 2: acetylcarnitine (C2) threshold ≥26 μM
  hazard ratio (Mantel-Haenszel): improved but is not significant
[1]; scenario 2: acetylcarnitine (C2) threshold ≥26 μM, 52 patients, p=0.14
  Kaplan-Meier curve, mortality benefit: no mortality benefit
[1]; scenario 3: acetylcarnitine (C2) threshold ≥30 μM
  hazard ratio (Mantel-Haenszel): significant and favors L-carnitine (18 g)
[1]; scenario 3: acetylcarnitine (C2) threshold ≥30 μM, 42 patients, p=0.01
  Kaplan-Meier curve, mortality benefit: mortality benefit
[1]; scenario 4: acetylcarnitine (C2) threshold ≥36 μM
  hazard ratio (Mantel-Haenszel): significant
[1]; scenario 4: acetylcarnitine (C2) threshold ≥36 μM, 34 patients, p=0.004
  Kaplan-Meier curve, mortality benefit: mortality benefit
[2]; 6, 12 or 18 g
  reduction in sequential organ failure assessment (SOFA) score at 48 hours: none of the tested L-carnitine doses produced a significant reduction
[2]; intention to treat analysis
  absolute mortality reduction at 28 days compared to saline placebo: 3%
[2]; per protocol analysis
  absolute mortality reduction at 28 days compared to saline placebo: 6%
